What was measured:
[1] = biological target: T1, human platelet phospholipase A2 (Homo sapiens, UniProt P14555); assay: PLA2 Inhibition Assay (14C-oleate labeled E. coli membrane substrate); type: biochemical; settings: human platelet PLA2, pH 7, 37° C., 7 min preincubation, 30 min incubation
T1 construct: The enzyme was isolated from human platelets; from tissue; host or cells: human platelets
T1 sequence (P14555 21-144): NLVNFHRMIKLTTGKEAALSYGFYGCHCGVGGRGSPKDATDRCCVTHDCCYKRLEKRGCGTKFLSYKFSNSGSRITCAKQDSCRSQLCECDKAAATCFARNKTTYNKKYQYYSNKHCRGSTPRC
Procedure: The utility of the compounds of the instant invention is shown by their inhibitory activity toward human platelet phospholipase A2 and their in vivo anti-inflammatory activity. The activity against human platelet phospholipase A2 was determined as described below:
The method used is similar to that reported by Franson, et al. [Jesse R. L. and Franson R. C., Biochim Biophys Acta 575:467-470 (1979), Franson R. C., Patriarca P., and Elsback P., J Lipid Res 15:380-388 (1974)]. The enzyme was isolated from human platelets. The substrate used consisted of ^14 C-oleate labeled Escherichia coli membranes. E. coli cells were grown in the presence of ^14 C-oleic acid and then autoclaved to prepare the membranes.
Various concentrations of test compounds are preincubated with PLA2 (3.6 μg/ml in a buffer consisting of 25 mM HEPES (pH 7), 150 mM NaCl, 5.0 mM CaCl2, and 10% DMSO (v/v, test compound solvent) at 37° C. for 7 minutes. The E. coli membrane substrate is then added (0.1 mM phospholipid, 0.005 μCi ^14 C) and the reaction is then incubated at 37° C. for 30 minutes. The reaction is terminated by the addition of 1.9 ml tetrahydrofuran (THF), and the entire solution is applied to a solid-phase extraction column (aminopropyl resin, Analytichem). The column is rinsed with an additional 1 ml of THF. The free fatty acid product of the reaction is then eluted from the column with 1 ml of 2% acetic acid (v/v) in THF and collected in a scintillation vial. The amount of free fatty acid product is determined by liquid scintillation counting. The amount of inhibition produced by the test compound is calculated by comparing the counts obtained in the presence of the compound to those obtained in its absence (solvent only). Background counts were determined by performing incubations in the absence of enzyme.
Percent inhibition is determined by the equation: [formula]
IC50 values (the concentration of inhibitor required to produce 50% inhibition) were determined by linear regression analysis of a plot of % inhibition versus log test compound concentration.

ears of CD-1 mice = assay: Inhibition of Phorbol-Ester-Induced inflammation (TPA ear edema); type: in vivo; settings: topical, six hours
Excerpt: The method used is similar to that reported by Young, et al. [Young J. M., Wagner B. M., Spires D. A., J Invest Dermatol, 80:48-52(1983); DeYound L. M., Kheifets J. B., Ballaron S. J., Young J. M., Agents Actions 26:335-341 (1989)]. An inflammatory reaction is induced by the topical application of 0.01% (w/v) […] (TPA) to the ears of CD-1 mice. An acute inflammatory reaction is produced, resulting in ear edema. TPA, with and without various concentrations of test compound, was applied to the inner and outer aspects of the ear surface (10 μl/surface). After six hours, the mice were sacrificed and the ears removed. Ear tissue punches (5/16") were taken from each ear and weighed to measure edema.
The anti-inflammatory activity of the test compounds was determined by comparing the edema produced by TPA without test compound to that produced in its presence.
Percent inhibition values were determined by the equation: [formula]

Row | Compound | IC50 [1] [µM] | other results
1 | CCCCCCCCCCCC1CC(O)OC1=O (centres unmarked) [Example 5, 3-n-Undecyl-5-Hydroxy-3,4-Dihydro-Furan-2-One] | 17 | % Inhibition of Ear Edema (ears of CD-1 mice; dose 2.6% (w/v)): 34.6%
2 | CCCCCC1CC(O)OC1=O (centres unmarked) [Example 11, 3-n-Amyl-5-Hydroxy-3,4-Dihyro-Furan-2-One] | > 500 | 
3 | O=C1OC(O)CC1CCCCCCCc1ccccc1 (centres unmarked) [Example 9] | 379 | 
4 | CCCCCCCCCCC1CC(O)OC1=O (centres unmarked) [Example 3, 3-n-Decyl-5-Hydroxy-3,4-Dihydro-Furan-2-One] | 525 | 

Now from value to molecule, other results behind:

Row | IC50 [1] [µM] | Compound | other results
5 | 18 | CCCCCCCCCCCCC1CC(O)OC1=O (centres unmarked) [Example 7, 3-n-Dodecyl-5-Hydroxy-3,4-Dihydro-Furan-2-One] | 
6 | 59 | CCCCCCCCCCCCCCCCC1CC(O)OC1=O (centres unmarked) [Example 13, 3-n-Hexadecyl-5-Hydroxy-3,4-Dihydro-Furan-2-One] | % Inhibition of Ear Edema (ears of CD-1 mice; dose 2.5% (w/v)): 6.8%; % Inhibition of Ear Edema (ears of CD-1 mice; dose 5.0% (w/v)): 24.6%; % Inhibition of Ear Edema (ears of CD-1 mice; dose 7.5% (w/v)): 33.5%; % Inhibition of Ear Edema (ears of CD-1 mice; dose 10% (w/v)): 45%

Source: US5202350A, “Furanone anti-inflammatory agents” (Bristol-Myers Squibb Co., priority 1991, dated 1993)
